Holding throughout (type): binding
For assay [1], the target named is T1, ATAD2A (Homo sapiens, UniProt Q6PL18).
T1 sequence (Q6PL18 1-1390): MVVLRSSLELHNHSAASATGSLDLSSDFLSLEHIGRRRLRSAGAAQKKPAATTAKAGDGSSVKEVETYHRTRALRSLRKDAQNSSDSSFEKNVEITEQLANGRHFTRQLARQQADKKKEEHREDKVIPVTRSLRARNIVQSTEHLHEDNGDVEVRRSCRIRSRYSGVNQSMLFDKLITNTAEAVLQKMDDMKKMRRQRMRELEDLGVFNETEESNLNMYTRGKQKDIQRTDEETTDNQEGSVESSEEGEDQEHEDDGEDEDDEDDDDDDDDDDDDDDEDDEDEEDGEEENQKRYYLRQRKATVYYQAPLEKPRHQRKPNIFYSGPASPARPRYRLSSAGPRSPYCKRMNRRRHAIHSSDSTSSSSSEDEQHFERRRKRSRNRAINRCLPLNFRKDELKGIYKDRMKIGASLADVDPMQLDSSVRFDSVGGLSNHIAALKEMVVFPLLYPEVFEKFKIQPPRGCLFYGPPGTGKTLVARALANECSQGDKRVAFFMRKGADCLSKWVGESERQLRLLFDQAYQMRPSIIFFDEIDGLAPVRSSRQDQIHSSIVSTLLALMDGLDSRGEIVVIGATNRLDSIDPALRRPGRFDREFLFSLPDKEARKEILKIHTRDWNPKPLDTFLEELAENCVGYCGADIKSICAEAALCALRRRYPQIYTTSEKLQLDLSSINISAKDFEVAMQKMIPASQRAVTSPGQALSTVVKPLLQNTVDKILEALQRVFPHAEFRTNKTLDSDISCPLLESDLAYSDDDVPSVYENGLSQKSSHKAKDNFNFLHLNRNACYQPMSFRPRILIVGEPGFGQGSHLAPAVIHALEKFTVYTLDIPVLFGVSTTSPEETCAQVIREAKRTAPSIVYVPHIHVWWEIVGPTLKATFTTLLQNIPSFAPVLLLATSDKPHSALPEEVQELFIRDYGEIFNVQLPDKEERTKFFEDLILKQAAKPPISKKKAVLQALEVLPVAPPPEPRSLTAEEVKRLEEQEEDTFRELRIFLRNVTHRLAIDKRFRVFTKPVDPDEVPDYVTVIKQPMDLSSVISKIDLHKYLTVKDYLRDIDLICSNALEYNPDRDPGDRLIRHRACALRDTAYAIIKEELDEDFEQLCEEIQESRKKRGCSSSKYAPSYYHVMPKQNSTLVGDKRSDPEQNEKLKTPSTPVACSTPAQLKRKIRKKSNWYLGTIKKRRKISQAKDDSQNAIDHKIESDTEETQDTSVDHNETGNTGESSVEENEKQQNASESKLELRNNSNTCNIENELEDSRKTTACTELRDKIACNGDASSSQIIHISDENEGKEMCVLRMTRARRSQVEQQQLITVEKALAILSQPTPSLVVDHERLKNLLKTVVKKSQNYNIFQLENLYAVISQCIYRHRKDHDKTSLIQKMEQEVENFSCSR
Nature of the assay: Alphascreen assay ATAD2A. Background: Alpha assays give light when donor and acceptor beads are brought close together.

The target in assay [2] is BAZ2BA (Homo sapiens, UniProt Q9UIF8). Kind of assay: Alphascreen assay BAZ2BA.
Chain of BAZ2BA (Q9UIF8 whole entry): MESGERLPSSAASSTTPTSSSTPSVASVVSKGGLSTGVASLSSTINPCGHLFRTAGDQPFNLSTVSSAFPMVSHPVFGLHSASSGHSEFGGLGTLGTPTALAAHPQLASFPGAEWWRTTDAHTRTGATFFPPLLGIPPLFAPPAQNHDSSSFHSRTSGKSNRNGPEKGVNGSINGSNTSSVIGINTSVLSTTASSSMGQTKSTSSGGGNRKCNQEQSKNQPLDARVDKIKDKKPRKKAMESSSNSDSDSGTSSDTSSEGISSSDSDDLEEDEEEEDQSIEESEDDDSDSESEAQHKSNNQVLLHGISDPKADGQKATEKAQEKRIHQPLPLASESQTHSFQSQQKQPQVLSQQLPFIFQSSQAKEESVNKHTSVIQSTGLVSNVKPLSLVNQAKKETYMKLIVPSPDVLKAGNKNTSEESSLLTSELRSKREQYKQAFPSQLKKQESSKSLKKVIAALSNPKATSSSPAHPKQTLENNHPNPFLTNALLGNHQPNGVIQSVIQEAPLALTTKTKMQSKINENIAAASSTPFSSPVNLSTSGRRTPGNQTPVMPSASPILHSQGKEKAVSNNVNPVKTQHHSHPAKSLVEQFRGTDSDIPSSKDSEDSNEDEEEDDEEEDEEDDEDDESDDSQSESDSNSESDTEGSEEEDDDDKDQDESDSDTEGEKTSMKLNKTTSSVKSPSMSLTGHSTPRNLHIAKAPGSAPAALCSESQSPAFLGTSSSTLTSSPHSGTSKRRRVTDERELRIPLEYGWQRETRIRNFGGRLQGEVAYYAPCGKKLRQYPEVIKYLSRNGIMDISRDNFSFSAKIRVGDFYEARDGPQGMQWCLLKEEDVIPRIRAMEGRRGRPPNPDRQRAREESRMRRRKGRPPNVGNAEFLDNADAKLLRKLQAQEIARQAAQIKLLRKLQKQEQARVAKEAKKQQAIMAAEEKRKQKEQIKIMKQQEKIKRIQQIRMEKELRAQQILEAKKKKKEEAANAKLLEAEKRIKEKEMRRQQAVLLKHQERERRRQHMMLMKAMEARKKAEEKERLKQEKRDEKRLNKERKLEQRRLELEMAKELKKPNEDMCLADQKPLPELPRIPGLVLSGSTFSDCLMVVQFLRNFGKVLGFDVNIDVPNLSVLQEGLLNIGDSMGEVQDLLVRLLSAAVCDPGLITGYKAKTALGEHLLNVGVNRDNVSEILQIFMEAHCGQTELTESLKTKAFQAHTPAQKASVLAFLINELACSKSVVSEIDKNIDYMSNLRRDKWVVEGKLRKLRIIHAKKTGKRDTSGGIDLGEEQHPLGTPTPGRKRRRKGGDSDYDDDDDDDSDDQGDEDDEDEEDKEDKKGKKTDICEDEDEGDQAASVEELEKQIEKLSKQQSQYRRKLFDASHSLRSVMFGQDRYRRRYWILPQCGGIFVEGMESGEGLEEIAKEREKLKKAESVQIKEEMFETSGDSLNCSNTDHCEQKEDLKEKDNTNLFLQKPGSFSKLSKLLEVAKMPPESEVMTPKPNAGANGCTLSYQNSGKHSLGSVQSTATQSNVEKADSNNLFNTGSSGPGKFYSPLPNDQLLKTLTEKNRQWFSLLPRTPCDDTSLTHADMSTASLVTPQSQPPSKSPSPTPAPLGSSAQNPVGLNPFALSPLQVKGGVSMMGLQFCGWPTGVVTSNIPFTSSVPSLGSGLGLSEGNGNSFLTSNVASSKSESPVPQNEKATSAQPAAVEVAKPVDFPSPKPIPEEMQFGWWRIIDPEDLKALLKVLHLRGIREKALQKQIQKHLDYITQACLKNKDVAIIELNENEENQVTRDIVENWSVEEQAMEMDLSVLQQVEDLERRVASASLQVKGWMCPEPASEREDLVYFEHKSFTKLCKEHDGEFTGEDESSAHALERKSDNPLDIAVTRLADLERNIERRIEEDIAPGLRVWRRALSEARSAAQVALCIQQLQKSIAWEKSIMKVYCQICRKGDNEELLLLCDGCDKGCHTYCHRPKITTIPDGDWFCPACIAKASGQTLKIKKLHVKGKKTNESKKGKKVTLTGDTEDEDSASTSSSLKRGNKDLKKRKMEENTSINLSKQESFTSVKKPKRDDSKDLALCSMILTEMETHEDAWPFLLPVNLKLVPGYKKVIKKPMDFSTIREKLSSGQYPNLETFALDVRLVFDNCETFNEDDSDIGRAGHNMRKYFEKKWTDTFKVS
Assay [3] addresses CECR2A (Homo sapiens, UniProt Q9BXF3). Nature of the assay: Alphascreen assay CECR2A.
Assay [4] deals with T2, BRD9A (Homo sapiens, UniProt Q9H8M2).
T2 sequence (Q9H8M2 1-597): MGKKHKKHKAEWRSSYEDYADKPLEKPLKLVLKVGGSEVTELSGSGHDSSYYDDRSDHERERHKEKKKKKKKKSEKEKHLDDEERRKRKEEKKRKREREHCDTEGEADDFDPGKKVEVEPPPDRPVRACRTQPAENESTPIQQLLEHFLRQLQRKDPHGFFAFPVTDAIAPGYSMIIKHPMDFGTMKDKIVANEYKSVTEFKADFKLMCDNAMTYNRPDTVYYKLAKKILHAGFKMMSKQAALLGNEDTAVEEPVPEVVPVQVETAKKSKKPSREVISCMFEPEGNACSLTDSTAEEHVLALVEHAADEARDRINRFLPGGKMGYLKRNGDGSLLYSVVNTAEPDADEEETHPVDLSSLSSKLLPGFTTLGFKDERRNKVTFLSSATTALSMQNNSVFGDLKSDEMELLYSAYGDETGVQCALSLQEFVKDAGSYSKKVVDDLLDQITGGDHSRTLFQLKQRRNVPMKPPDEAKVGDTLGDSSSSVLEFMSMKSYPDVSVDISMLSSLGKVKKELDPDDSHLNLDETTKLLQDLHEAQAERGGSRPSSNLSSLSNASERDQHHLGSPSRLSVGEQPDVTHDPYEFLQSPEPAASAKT
Nature of the assay: Alphascreen assay BRD9A. Particulars: for % Inhibition at 25 µM / inhibition at 25 µM: BRD9A; for IC50: read-out: BRD9 IC50.

Chain of CECR2A (Q9BXF3 whole entry): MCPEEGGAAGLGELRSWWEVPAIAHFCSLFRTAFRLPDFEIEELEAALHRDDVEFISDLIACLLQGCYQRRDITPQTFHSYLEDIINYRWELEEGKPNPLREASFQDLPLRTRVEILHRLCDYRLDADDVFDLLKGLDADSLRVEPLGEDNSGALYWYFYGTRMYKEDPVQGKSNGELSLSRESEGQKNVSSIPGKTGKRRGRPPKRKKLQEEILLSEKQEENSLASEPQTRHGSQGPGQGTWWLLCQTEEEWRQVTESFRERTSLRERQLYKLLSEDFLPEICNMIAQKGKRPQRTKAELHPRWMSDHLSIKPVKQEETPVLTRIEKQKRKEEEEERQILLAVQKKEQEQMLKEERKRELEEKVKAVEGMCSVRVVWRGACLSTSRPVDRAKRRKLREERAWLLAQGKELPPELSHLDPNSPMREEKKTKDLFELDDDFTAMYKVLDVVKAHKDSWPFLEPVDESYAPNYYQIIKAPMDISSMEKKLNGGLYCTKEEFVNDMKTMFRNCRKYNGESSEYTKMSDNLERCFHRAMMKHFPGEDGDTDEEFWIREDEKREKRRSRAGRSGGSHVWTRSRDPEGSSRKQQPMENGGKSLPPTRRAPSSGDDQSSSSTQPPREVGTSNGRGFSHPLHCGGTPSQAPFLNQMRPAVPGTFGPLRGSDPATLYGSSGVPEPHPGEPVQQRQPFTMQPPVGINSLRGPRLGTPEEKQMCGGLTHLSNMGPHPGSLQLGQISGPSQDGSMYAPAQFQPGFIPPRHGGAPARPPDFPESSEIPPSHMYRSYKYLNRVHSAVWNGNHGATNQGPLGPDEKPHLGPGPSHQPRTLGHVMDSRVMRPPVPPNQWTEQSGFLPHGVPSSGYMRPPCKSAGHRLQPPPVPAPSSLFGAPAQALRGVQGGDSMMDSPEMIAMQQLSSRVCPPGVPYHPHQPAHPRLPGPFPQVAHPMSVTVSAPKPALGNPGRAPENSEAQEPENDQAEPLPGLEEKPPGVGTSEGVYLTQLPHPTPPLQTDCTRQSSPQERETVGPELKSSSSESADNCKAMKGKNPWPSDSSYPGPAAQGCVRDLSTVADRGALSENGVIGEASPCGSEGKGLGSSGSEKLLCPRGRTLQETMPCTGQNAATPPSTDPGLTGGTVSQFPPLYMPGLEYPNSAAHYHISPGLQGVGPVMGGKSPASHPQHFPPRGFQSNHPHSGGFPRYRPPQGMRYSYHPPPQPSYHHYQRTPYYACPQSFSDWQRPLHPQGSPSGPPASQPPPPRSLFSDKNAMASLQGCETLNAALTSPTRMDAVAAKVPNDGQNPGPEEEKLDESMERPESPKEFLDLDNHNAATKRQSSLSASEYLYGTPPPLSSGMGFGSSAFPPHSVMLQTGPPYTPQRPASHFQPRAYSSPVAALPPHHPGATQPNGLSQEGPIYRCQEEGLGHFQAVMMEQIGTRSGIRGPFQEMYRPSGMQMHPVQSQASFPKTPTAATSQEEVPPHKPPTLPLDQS

As for `CC(=O)Nc1ccc2c(C)cc(=O)n(C)c2c1` [compound 12, N-(1,4-dimethyl-2-oxo-1,2-dihydroquinolin-7-yl)acetamide], the inhibition (commonly the relative decrease from the control value, in per cent) at 25 µM in assay [1] was 2.4%; in assay [2], -2.6%; in assay [3] it was 38.7%; in assay [4], 82.8%. Moreover, the “% Inhibition at 25 µM” value in assay [4] is given as “strong inhibition”. In assay [4], the IC50 – broadly, the concentration at which inhibition is half-maximal – was 12.5 µM.
For `Cc1cc(=O)n(C)c2cc(NS(C)(=O)=O)ccc12` [compound 13, N-(1,4-dimethyl-2-oxo-1,2-dihydroquinolin-7-yl)methanesulfonam], the inhibition at 25 µM in assay [1] worked out at 1.4%; in assay [2] it was 5.3%; in assay [3], 3.9%; in assay [4], 84.1%. For the same compound, the “% Inhibition at 25 µM” value in assay [4] is “strong inhibition”. Besides, the IC50 in assay [4] is 5.7 µM.

The values are drawn from paper PMC4770306, “Structure-Based Identification of Inhibitory Fragments Targeting the p300/CBP-Associated Factor Bromodomain” (Journal of Medicinal Chemistry, 2016).
